Converted amounts (≈) assume the structure as drawn.
Experiments:
[1] = tested on: HCT116 (human colon cancer cells); assay: MTT assay, HCT116; assay type: cell-based; conditions: HCT-116, 72 h
[2] = tested on: HepG2 (human hepatoma cells); assay: MTT assay, HepG2; assay type: cell-based; conditions: 72 h
Description: (§1) 1. Sample preparation: After dissolved with DMSO (Merck), PBS (−) was added to make 1000 μg/ml solution or a uniform suspension, and then diluted with PBS (−) containing the DMSO. Doxorubicin (DOX) was used as the positive control drug.
(§2) 2. Cell Line • 1) A549 (human lung cancer cells); 2) HCT116 (human colon cancer cells); 3) HepG2 (human hepatoma cells); 4) ZR-75-30 (human breast cancer cells); 5) U87MG (human brain star glioblastoma)
(§3) DMEM+5-10% FBS+double resistant
(§4) MTT assay. 100 μl cell suspension was added at a concentration of 4˜5×10^4 cells/ml to each well of a 96-well plate, and was set at 37° C., 5% CO2 in the incubator. After 24 h, the sample solution was added, 10 μl/hole, double wells were set, 37° C., acting for 72 h at 5% CO2. […] of 5 mg/ml was added to each well, the dissolving liquid was added after acted for 4 h, 100 μl/hole, kept in the incubator, and read 570 nm OD with MK-2 automatic microplate reader after dissolution.

[3] = target: PI3Kα (Homo sapiens, UniProt P42336); assay: Kinase-Glo Luminescent Kinase Assay, PI3Kα; assay type: biochemical
PI3Kα, sequence (P42336 whole entry, species assumed): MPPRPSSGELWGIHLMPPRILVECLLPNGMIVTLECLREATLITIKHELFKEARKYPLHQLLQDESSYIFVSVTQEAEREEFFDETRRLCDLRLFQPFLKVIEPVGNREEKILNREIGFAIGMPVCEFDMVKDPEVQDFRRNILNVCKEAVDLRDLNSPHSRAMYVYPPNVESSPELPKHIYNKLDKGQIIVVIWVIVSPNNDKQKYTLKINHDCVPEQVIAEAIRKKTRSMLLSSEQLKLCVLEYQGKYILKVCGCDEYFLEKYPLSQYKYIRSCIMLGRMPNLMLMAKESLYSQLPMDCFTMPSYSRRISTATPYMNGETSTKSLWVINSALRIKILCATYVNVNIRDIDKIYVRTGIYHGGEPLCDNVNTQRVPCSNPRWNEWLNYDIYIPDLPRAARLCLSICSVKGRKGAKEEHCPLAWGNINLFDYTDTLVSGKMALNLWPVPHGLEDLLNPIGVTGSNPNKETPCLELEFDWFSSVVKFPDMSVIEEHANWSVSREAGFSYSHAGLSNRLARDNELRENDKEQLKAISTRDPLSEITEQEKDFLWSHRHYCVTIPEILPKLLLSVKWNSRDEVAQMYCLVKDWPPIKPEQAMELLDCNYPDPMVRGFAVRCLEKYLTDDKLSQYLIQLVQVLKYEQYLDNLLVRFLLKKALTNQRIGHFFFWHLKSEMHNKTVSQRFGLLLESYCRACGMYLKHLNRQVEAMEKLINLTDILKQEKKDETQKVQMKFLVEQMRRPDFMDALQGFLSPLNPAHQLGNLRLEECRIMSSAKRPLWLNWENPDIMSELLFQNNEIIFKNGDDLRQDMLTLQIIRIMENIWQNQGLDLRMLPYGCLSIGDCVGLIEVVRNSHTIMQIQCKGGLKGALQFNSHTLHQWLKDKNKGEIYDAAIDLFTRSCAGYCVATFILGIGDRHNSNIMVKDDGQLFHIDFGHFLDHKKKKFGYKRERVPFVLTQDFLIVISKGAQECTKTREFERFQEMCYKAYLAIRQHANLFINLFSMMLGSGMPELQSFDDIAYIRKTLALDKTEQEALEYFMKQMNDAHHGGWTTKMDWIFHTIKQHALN
PI3Kα, sequence (P27986 whole entry partner, species assumed): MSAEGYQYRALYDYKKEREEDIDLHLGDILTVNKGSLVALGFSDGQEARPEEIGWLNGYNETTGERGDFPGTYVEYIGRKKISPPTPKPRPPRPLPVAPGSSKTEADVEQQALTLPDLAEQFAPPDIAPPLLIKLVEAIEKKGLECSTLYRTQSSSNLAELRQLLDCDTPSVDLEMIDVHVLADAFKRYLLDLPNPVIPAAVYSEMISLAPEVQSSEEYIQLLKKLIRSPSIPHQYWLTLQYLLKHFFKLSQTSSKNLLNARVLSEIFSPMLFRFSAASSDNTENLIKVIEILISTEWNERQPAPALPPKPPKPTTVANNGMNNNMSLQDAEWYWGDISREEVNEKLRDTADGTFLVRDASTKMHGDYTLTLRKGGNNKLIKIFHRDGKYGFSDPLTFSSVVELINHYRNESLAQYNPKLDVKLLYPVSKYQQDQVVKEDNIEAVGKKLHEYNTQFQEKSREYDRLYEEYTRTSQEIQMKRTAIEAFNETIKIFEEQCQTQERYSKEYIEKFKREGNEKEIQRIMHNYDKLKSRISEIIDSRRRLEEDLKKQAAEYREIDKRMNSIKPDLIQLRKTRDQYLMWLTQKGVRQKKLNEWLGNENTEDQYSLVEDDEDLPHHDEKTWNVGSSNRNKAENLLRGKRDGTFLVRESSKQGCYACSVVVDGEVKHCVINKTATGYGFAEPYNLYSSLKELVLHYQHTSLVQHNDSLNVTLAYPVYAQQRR

[4] = tested on: A549 (human lung cancer cells); assay: MTT assay, A549; assay type: cell-based; conditions: 72 h
Description: as §1, §2, §3, §4

SMILES	IC50 [1]	IC50 [2]	melting point	IC50 [3]	IC50 [4]
O=S(=O)(Nc1cc(-c2ccc3nccc(-c4ccc(Cn5cncn5)cc4)c3c2)cnc1Cl)c1ccc(F)cc1F [Compound 35, N-(5-(4-(4-((1H-1,2,4-triazole-1-yl)methyl)phenyl)quinolin-6-yl)-2-chlorinepyridin-3-yl)-2,4-difluorobenzenesulfonamide]	1.64 µg/mL (≈ 2.78 µM)	1.2 µg/mL (≈ 2.04 µM)	145 to 148 °C	0.82 nM	5.66 µg/mL (≈ 9.61 µM)
O=S(=O)(Nc1cc(-c2ccc3nccc(-n4cncn4)c3c2)cnc1Cl)c1ccc(F)cc1 [Compound 27, N-(5-(4-(1H-1,2,4-triazole-1-yl)quinolin-6-yl)-2-chlorinepyridin-3-yl)-4-fluorobenzenesulfonamide]	1.22 µg/mL (≈ 2.54 µM)	9.43 µg/mL (≈ 19.6 µM)	258 to 261 °C	0.81 nM	1.16 µg/mL (≈ 2.41 µM)
COc1ncc(-c2ccc3nccc(-n4cncn4)c3c2)cc1NS(=O)(=O)c1ccc(F)cc1 [Compound 25, N-(5-(4-(1H-1,2,4-triazole-1-yl)quinolin-6-yl)-2-methoxypyridine-3-yl)-4-fluorobenzenesulfonamide]	1.04 µg/mL (≈ 2.18 µM)	9.49 µg/mL (≈ 19.9 µM)	122 to 124 °C	1.2 nM	1.02 µg/mL (≈ 2.14 µM)
CN(C)Cc1ccc(-c2ccnc3ccc(-c4cnc(Cl)c(NS(=O)(=O)c5ccc(F)cc5F)c4)cc23)cc1 [Compound 32, N-(5-(4-(4-((dimethylamine)methyl)phenyl)quinolin-6-yl)-2-chlorinepyridin-3-yl)-2,4-difluorobenzenesulfonamide]	1.03 µg/mL (≈ 1.82 µM)	2.18 µg/mL (≈ 3.86 µM)	160 to 164 °C	0.69 nM	2.12 µg/mL (≈ 3.75 µM)
COc1ncc(-c2ccc3nccc(-c4ccc(CN(C)C)cc4)c3c2)cc1NS(=O)(=O)c1ccc(F)cc1 [Compound 31, N-(5-(4-(4-((dimethylamine)methyl)phenyl)quinolin-6-yl)-2-methoxypyridine-3-yl)-4-fluorobenzenesulfonamide]	1.02 µg/mL (≈ 1.88 µM)	1.64 µg/mL (≈ 3.02 µM)	150 to 152 °C	2.1 nM	0.2 µg/mL (≈ 0.369 µM)

The remaining compounds from weak to strong by IC50 [3], led by results:

IC50 [1]	IC50 [2]	melting point	IC50 [3]	IC50 [4]	SMILES
1.15 µg/mL (≈ 2.03 µM)	7.18 µg/mL (≈ 12.7 µM)	150 to 152 °C	0.91 nM	0.28 µg/mL (≈ 0.494 µM)	COc1ncc(-c2ccc3nccc(-c4ccc(Cn5cncn5)cc4)c3c2)cc1NS(=O)(=O)c1ccc(F)cc1 [Compound 34, N-(5-(4-(4-((1H-1,2,4-triazole-1-yl)methyl)phenyl)quinolin-6-yl)-2-methoxypyridine-3-yl)-4-fluorobenzenesulfonamide]
1.89 µg/mL (≈ 3.18 µM)	1.71 µg/mL (≈ 2.87 µM)	132 to 135 °C	0.75 nM	1.08 µg/mL (≈ 1.81 µM)	CN(CCO)Cc1ccc(-c2ccnc3ccc(-c4cnc(Cl)c(NS(=O)(=O)c5ccc(F)cc5F)c4)cc23)cc1 [Compound 37, N-(5-(4-(4-(((2-hydroxyethyl)(methyl)amino)methyl)phenyl)quinolin-6-yl)-2-chlorinepyridin-3-yl)-2,4-difluorobenzenesulfonamide]
1.43 µg/mL (≈ 2.5 µM)	5.47 µg/mL (≈ 9.58 µM)	235 to 236 °C	0.73 nM	1.52 µg/mL (≈ 2.66 µM)	O=S(=O)(Nc1cc(-c2ccc3nccc(-c4ccc(Cn5cncn5)cc4)c3c2)cnc1Cl)c1ccc(F)cc1 [Compound 33, N-(5-(4-(4-((1H-1,2,4-triazole-1-yl)methyl)phenyl)quinolin-6-yl)-2-chlorinepyridin-3-yl)-4-fluorobenzenesulfonamide]
1.23 µg/mL (≈ 2.47 µM)	2.8 µg/mL (≈ 5.61 µM)	118 to 121 °C	0.59 nM	2.35 µg/mL (≈ 4.71 µM)	O=S(=O)(Nc1cc(-c2ccc3nccc(-n4cncn4)c3c2)cnc1Cl)c1ccc(F)cc1F [Compound 26, N-(5-(4-(1H-1,2,4-triazole-1-yl)quinolin-6-yl)-2-chlorinepyridin-3-yl)-2,4-difluorobenzenesulfonamide]
